These results are taken from BindingDB's records for doi:10.1021/acs.jmedchem.5b00497 (Shandong University, 2016).

The nature of this assay: Inhibition of human recombinant CCR5 encoding an HIV-1-longterminal-repeat-regulated beta-galactosidase reporter gene expressed in human HeLaP4 cells assessed as reduction of interaction with HIV-1 gp160 expressed in CHO cells by cell-cell fusion assay. (In general: In a reporter assay the amount or activity of a reporter protein is the signal.)

For the compound `Cc1nc2ccccc2n1C1CCN(CCC(c2ccccc2)c2ccccc2)CC1`, the IC50 is 650 nM.

A word on the IC50: it is the point on the concentration scale where inhibition reaches its midpoint.
